According to the NIST ThermoML archive (doi:10.1021/acs.jced.5b00992):
Numbers after ± are expanded uncertainties.

Key:
[1] = refractive index (Na D-line) (dimensionless); wn = mass fraction of the nth substance listed; conditions: 313.15 K, 88.4 kPa, Liquid, Standard Abbe refractometry
[2] = wn = mass fraction of the nth substance listed; conditions: 313.15 K, 88.4 kPa, Liquid; for viscosity: Capillary tube (Ostwald / Ubbelohde) method; for mass density: Pycnometric method

O=S(=O)([O-])[O-].[Na+].[Na+] [sodium sulfate] + O
refractive index ([1]; w1 = 0.3237): 1.3774 ± 0.0006 | viscosity ([2]; w1 = 0.3237): 2.871 ± 0.29 mPa·s | mass density ([2]; w1 = 0.3237): 1317.6 ± 3.7 kg/m3

O=S(=O)([O-])[O-].[K+].[K+] [potassium sulfate] + O
refractive index ([1]; w1 = 0.129): 1.3466 ± 0.0006 | viscosity ([2]; w1 = 0.129): 0.8181 ± 0.082 mPa·s | mass density ([2]; w1 = 0.129): 1097.5 ± 2.3 kg/m3
